Columns and labels:
Plasmodium falciparum [1] = assay: NOVARTIS: Inhibition of Plasmodium falciparum W2 (drug-resistant) proliferation in erythrocyte-based infection assay; format: functional, organism-based; conditions: Plasmodium falciparum, W2; read-out: EC50
Plasmodium falciparum [2] = assay: NOVARTIS: Inhibition of Plasmodium falciparum 3D7 (drug-susceptible) proliferation in erythrocyte-based infection assay; format: functional, organism-based; conditions: Plasmodium falciparum, 3D7
[3] = NOVARTIS: Cytotoxicity against human hepatocellular carcinoma cell line (Huh7); format: toxicity, cell-based, Huh-7; conditions: Huh7 cells (hepatocellular carcinoma cell line)

Row | Structure (SMILES) | EC50 (Plasmodium falciparum [1]) [nM] | EC50 (Plasmodium falciparum [2]) [nM] | CC50 [3] [nM]
1 | COC(=O)C1=C(C)NC2=C(C(=O)CC(c3ccc(OC)c(OC)c3)C2)C1c1ccccc1F (configuration not stated) | 30.6 | 50.5 | > 100000
2 | CCN1CCN(c2cc(C)c3cc(NC(=O)c4ccc(OC)c([N+](=O)[O-])c4)ccc3n2)CC1 | 344 | 273 | 15400
3 | COc1ccc(CN(Cc2cc3cccc(C)c3nc2N2CCCC(O)C2)C(=O)c2ccc(OC)c(OC)c2)cc1 (configuration not stated) | 1220 | 1420 | > 100000
4 | OC(COc1ccc(OCC(O)CN2CCN(C3c4ccccc4-c4ccccc43)CC2)cc1)CN1CCN(C2c3ccccc3-c3ccccc32)CC1 (configuration not stated) | > 12500 | > 6190 | > 100000
5 | CCOc1cccc(Nc2c3c(nc4ncnn24)CCC3)c1 | 374 | 597 | > 100000
6 | CCc1ccc(-n2c(C(CC)N(CCc3ccc(OC)c(OC)c3)C(=O)C(CC)c3ccccc3)nc3ccccc3c2=O)cc1 (configuration not stated) | > 867 | > 1250 | > 10000
7 | Cc1cc(C)cc(OCC(=O)N2N=C(C(C)C)CC2(O)C(F)(F)F)c1 (configuration not stated) | > 1220 | 1750 | > 10000
8 | Cc1ccccc1Oc1cc(NC(=O)c2cc3n(n2)C(C(F)(F)F)CC(c2ccccc2)N3)cc(Oc2ccccc2C)c1 (configuration not stated) | 380 | 359 | > 100000
9 | CCOc1ccc2nc3ccc([N+](=O)[O-])cc3c(NC)c2c1 | 534 | 222 | > 10000
10 | CCCN(CCC)[P+](CCC)(c1ccc([P+](CCC)(N(CCC)CCC)N(CCC)CCC)cc1)N(CCC)CCC | 66.8 | 193 | 72600
11 | Oc1ccc(-c2ccccc2)cc1CN1CCCCCC1 | 53.7 | 242 | 67400
12 | Cc1ccc(C)c(-c2csc(Nc3ccc(C)c(C)c3)n2)c1 | 116 | 493 | > 100000
13 | CC(C)CNC(=O)c1cnc(NCCc2ccncc2)nc1NCCc1ccccc1 | 728 | 809 | > 10000
14 | CSc1nc2nc(C)c(Cc3cccc(F)c3)c(C)n2n1 | 152 | 298 | > 100000
15 | COc1cc(NC(C)CCCN(Cc2ccc(Cl)cc2)C(=O)Nc2ccccc2F)c2ncccc2c1 (configuration not stated) | < 0.572 | > 1090 | > 8250
16 | Cn1nc(C(F)(F)F)c(C(=O)Nc2cccc(C(F)(F)F)c2)c1SCc1ccc(Cl)cc1 | 1200 | 1010 | 31300
17 | CCOC(=O)CSc1nc2c(sc(=S)n2-c2ccc(Cl)c(C)c2)c(=O)n1-c1ccccc1OC | > 884 | > 1250 | > 10000
18 | Cc1cc(C)nc(NC(=N)Nc2cccc(O)c2)n1 | 2650 | 3920 | > 100000
19 | Cc1ccc(F)cc1NC(=O)c1cc(Cl)ccc1Nc1ccccc1 | 115 | 191 | > 100000
20 | O=C1C2=C(Nc3ccccc3SC2c2ccc(OCc3ccccc3)cc2)c2ccccc21 (configuration not stated) | 103 | 479 | > 100000
21 | CCCCN(CC(=O)Nc1cc(C(C)(C)C)nn1-c1ccc(Cl)cc1)C(=O)c1ccc(OC)cc1 | 52.7 | > 1390 | 5080
22 | CCN1CCN(c2c(Cl)cccc2NC(=O)C(Cl)(Cl)Cl)CC1 | 1180 | 1670 | > 100000
23 | COc1ccc(C(NC(=O)c2cccnc2)c2cc(Cl)c3cccnc3c2O)cc1 (configuration not stated) | 528 | 945 | > 100000
24 | c1ccc(-c2nc(Nc3ccncc3)cc(-c3cccnc3)n2)cc1 | 1440 | 884 | > 10000
25 | O=C(NCc1ccccc1)c1cnc(NCCC(c2ccccc2)c2ccccc2)nc1NCC1CCCCC1 | 292 | 527 | > 10000

Row | Structure (SMILES) | EC50 (Plasmodium falciparum [1]) [nM] | EC50 (Plasmodium falciparum [2]) [nM] | CC50 [3] [nM]
26 | COc1cc(N)c(Cl)cc1C(=O)NCC1CCN(c2nc(C)cc(C)n2)CC1 | 531 | 345 | 64900
27 | CC1CC2(C)Oc3ccccc3CC2C(C)C1CNCCCN(C)C (configuration not stated) | 192 | 241 | 4790
28 | c1ccc2c(c1)[nH]c1c(NCCN3CCCCC3)ncnc12 | 788 | 704 | 49900
29 | COc1ccc(C=C2N=C(c3ccc(Cl)cc3)N(c3cc(Cl)ccc3C)C2=O)cc1OC | 1320 | 3480 | > 100000
30 | Cc1cccc(C)c1OCC(=O)Nc1ccccc1O | 1360 | 742 | > 100000
31 | COc1ccc(C2(C(=O)NCc3ccccc3Cl)CCCC2)cc1OC | 5220 | 12000 | > 100000
32 | CCCN(C(=O)Nc1c(C(C)C)cccc1C(C)C)C(CC)c1nc2ccccc2c(=O)n1-c1cccc(C)c1 (configuration not stated) | 4580 | 3170 | 80900
33 | COc1cc(OC)cc(C(=O)NCC2Cc3cc(Cl)cc(-c4ccncc4)c3O2)c1 (configuration not stated) | 537 | 368 | 44100
34 | CC(=O)c1cccc(S(=O)(=O)NCCCNc2nc3cc(C)cc(C)c3cc2C#N)c1 | 698 | 1150 | > 100000
35 | CCCCCn1c(SCc2ccc(C)cc2)nc2cc(C(=O)NCc3ccco3)ccc2c1=O | 3160 | > 12500 | > 100000
36 | COc1cccc(C(=O)NCc2nnc(S)n2-c2ccc(Cl)c(Cl)c2)c1 | 273 | 275 | > 100000
37 | C=CCNC(=S)N1CCN(c2ccc([N+](=O)[O-])cc2)CC1 | > 1250 | 2370 | > 10000
38 | Cc1[nH]c(=O)[nH]c(=O)c1S(=O)(=O)Nc1ccc2oc(-c3ccncc3)nc2c1 | > 10000 | > 10000 | > 100000
39 | COC(=O)C1=CNC=C(C(=O)OC)C1c1cc(OC)c(OC)c(OC)c1 | 4500 | 8990 | > 100000
40 | COCCOC(=O)C1=C(C)NC2=C(C(=O)CC(c3ccc(OC)c(OC)c3)C2)C1c1cccc(Cl)c1Cl (configuration not stated) | 58 | 178 | > 100000
41 | COc1ccc(-c2cc(C(F)(F)F)n3nc(C(=O)NC4CCCCC4)c(Cl)c3n2)cc1OC | 34.8 | > 441 | > 4020
42 | N#Cc1c(N)nc(SCC(=O)c2ccc([N+](=O)[O-])cc2)c(C#N)c1-c1ccccc1 | 1840 | 4810 | > 100000
43 | Cc1ccc(N2C(N)=NC(N)=NC2(C)C)cc1 | 430 | 19.3 | > 100000
44 | COC(=O)C1=C(C)NC(=Cc2cc(C)n(-c3cc(C)ccc3OC)c2C)C1=O | 70.4 | 34.8 | > 100000
45 | CCOc1ccc2nc(NCCNC(=O)c3ccco3)c(C)cc2c1 | > 279 | > 1250 | > 10000
46 | Cc1nnc(SCC(=O)NCc2ccco2)n1-c1ccc(F)cc1 | 459 | > 8950 | > 100000
47 | CCCCCN1/C(=C\C=C\c2n(CCCCC)c3cc(Cl)c(Cl)cc3[n+]2CC)N(CC)c2cc(Cl)c(Cl)cc21 | > 1060 | > 1300 | > 10000
48 | COc1ccc(C(C)=NNc2nnc(C)c(O)n2)cc1 | 258 | 188 | 7680
49 | O=C(Nc1ccc(Cl)cc1)Oc1ccccc1 [PHENYL 4-CHLOROPHENYLCARBAMATE] | 2010 | > 12500 | 51900
